One compound from paper PMC12177060, “Blocking XIAP:CASP7-p19 selectively induces apoptosis of CASP3/DR malignancies by a novel reversible small molecule” (Cell Death & Disease, 2025) can be followed below.

This experiment addresses T1, CASP7 (Homo sapiens, UniProt P55210).
T1 construct: human CASP7 cDNA in pET28a, C-terminal 6-His tag, E. coli BL21(DE3), Ni-NTA purified; active processed form, MW 70 kDa hetero-tetramer (p19/p12)
T1 sequence (P55210 24-198): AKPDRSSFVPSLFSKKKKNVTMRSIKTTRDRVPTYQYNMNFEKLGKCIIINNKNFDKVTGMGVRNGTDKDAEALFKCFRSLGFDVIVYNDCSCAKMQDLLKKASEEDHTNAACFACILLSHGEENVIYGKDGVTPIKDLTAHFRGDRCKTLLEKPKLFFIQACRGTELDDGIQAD
T1 sequence (P55210 207-303): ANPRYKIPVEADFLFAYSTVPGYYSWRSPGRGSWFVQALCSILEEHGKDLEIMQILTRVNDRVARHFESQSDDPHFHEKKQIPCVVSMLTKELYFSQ
Put plainly: SPR (BIAcore), His-tagged CASP7 immobilised on NiNTA chip. It is filed as binding. The note with it: allosteric site near Cys246/Asp93 (proposed), reversible; 2.5, 5 or 10 μM injected. For orientation: In SPR one partner is held on a chip, and binding of the other changes the refractive index at the surface.

The compound `COc1cc2c(-c3ccc(O)cc3)nc3c(c(C)nn3-c3ccccc3)c2cc1OC` [compound 643943, 643943] registered a Kd of 3.1 µM.

By Kd is commonly meant the free concentration of one partner at which half of the binding sites on the other are occupied at equilibrium, for simple one-to-one binding. A high value points to weaker binding.
